These results are taken from patent US20240287172A1, “PROTEIN BINDERS TO IRHOM2 EPITOPES” (SCIRHOM GMBH, priority 2019, published 2024).

Each structure is given as a SMILES string.

The subject of this test is LPS-induced release of endogenous TNFα from human THP-1 monocytic cells. Description: ELISA-based TNFα release assay, LPS-induced, THP-1 cells. The format is cell-based. As to conditions: LPS 50 ng/ml, 2 hours, antibodies purified from hybridoma supernatants and IgG at 10 μg/ml, Batimastat at 10 μM. Here is the method: In the following study, ELISA-based TNFα release assays were performed to verify the inhibitory effects of the purified antibodies of the invention on LPS-induced release of endogenous TNFα from human THP-1 monocytic cells.
In brief, on day 1, Nunc black MaxiSorp® 96-well plates (Thermo Fisher Scientific, USA) were coated overnight with 100 μl per well of mouse anti-human TNFα capture antibody (provided as part of the DuoSet ELISA kit) at 4 μg/ml TBS at 4° C. On day 2, the capture antibody solution was removed and MaxiSorp® plates were blocked with 300 μl per well of TBS, 1% BSA at room temperature for 3 hours. […]
Following another round of 4 times washing with 350 μl TBS-T (Carl Roth, Germany) per well on a 96-head plate washer (Tecan Group, Switzerland) and careful removal of all buffer traces after the fourth cycle, 100 μl AttoPhos substrate solution (Promega, USA) per well was added for incubation in the dark at room temperature for 1 hour. Using an infinite M1000 (Tecan Group, Switzerland) microplate reader, the fluorescence of each well was collected at an excitation wavelength of 435 nm and an emission wavelength of 555 nm. […]
On the technique in general: An ELISA detects its analyte on a solid surface through an enzyme-linked reagent.

A word on the inhibition: it is the drop in the measured response relative to a control, in per cent. Higher therefore signals a response far below the control. Compound `CNC(=O)[C@H](Cc1ccccc1)NC(=O)[C@H](CC(C)C)[C@H](CSc1cccs1)C(=O)NO` [Batimastat] displayed an inhibition at 10 µM of 96.2%.
